Test results from patent US5609749A, “Electrochemical assay method with novel p-phenylenediamine compound” (Mochida Pharmaceutical Co., Ltd., priority 1993, dated 1997).
Structures can show the parent of a compound that is named as a salt.

How the values were obtained:
[1] = Dry chemistry type chips: filter paper impregnated with mediator solution and dried on an electrode; conditions: mediator dried on cellulose or glass filter paper, dissolved by liquid sample
Description: In addition, the present inventors have attempted to prepare a dry chemistry type chips by impregnating a piece of cellulose filter paper or glass filter paper with a solution of HQ, PPD, TMPD or TEPD and drying the resulting piece on an electrode (by freeze-drying, vacuum drying, air-drying or the like) or arranging it on an electrode after drying so that the impregnated electron mediator can dissolve in a liquid sample at the time of measurement.

Glucose oxidase (GOD) = target: T1, Glucose oxidase (GOD) (Aspergillus niger, UniProt P13006); assay: Electron transfer activity 1: GOD-glucose-compound, current at +300 mV; format: biochemical; conditions: +300 mV vs Ag/AgCl, pH 6.0
T1 construct: purchased Boehringer-Mannheim
Procedure: Measurement of electron transfer activities of TEPD, TCPD, THEPD, TDHPD, HTEPD, N,N'-BHPD, N,N-BHDPD, N,N'-BHDPD, and p-phenylenediamine derivatives having substituted amino group by reacting p-phenylenediamine with propyleneoxide--1
Glucose oxidase (GOD, manufactured by Boehringer-Mannheim) was dissolved in 0.1M phosphate buffer (pH 6.0) containing 0.1M NaCl to prepare 0M and 4.0×10^-4 M GOD solutions. Also, glucose (manufactured by Junsei Kagaku) was dissolved in the same buffer to prepare a 1.5M solution. In the same manner, each of the TEPD, TCPD, THEPD, TDHPD, HTEPD, N,N-BHDPD, N,N'-BHPD, N,N'-BHDPD, and p-phenylenediamine derivatives having substituted amino group by reacting p-phenylenediamine with propyleneoxide obtained in Synthesis Examples 1 to 9 was dissolved in the same buffer to prepare a 5.0×10^-3 M solution.
(§1) Each of these solutions was mixed in 0.1M phosphate buffer (pH 6.0) containing 0.1M NaCl in the following mixing ratio just before the measurement to prepare solutions of the following compositions A and B, and current was measured continuously in the presence (composition A) or absence (composition B) of GOD.
Using the same apparatus of Test Example 2, electric current was measured in the presence (composition A) or absence (composition B) of GOD for 10 minutes under application of potential of +300 mV (vs Ag/AgCl) to the working electrode.

[2] = target: T2, Horseradish peroxidase (HRPO) (Armoracia rusticana, UniProt P00433); assay: Electron transfer activity 2: HRPO-hydrogen peroxide-compound, current at -80 mV or -150 mV; format: biochemical; conditions: -80 mV or -150 mV vs Ag/AgCl, pH 6.0
T2 construct: purchased TOYOBO
T2 sequence (P00433 31-338 limits assumed): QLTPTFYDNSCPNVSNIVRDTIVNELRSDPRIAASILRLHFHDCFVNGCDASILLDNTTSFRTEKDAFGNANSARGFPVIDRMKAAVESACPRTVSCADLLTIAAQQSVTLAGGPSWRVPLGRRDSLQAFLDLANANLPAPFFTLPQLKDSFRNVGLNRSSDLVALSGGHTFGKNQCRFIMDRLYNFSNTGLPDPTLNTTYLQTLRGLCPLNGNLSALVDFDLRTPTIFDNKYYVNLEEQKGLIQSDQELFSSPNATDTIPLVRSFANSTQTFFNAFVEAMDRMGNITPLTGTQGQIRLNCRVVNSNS
Procedure: Measurement of electron transfer activities of TCPD, THEPD, TDHPD, HTEPD, N,N-BHDPD, N,N'-BHPD, N,N'-BHDPD, and p-phenylenediamine derivatives having substituted amino group by reacting p-phenylenediamine with propyleneoxide--2
Horseradish peroxidase (HRPO, manufactured by TOYOBO) was dissolved in 0.1M phosphate buffer (pH 6.0) containing 0.1M NaCl to prepare 0M and 5.0×10^-7 M HRPO solutions. Also, hydrogen peroxide (manufactured by Wako Pure Chemical Industries) was dissolved in the same buffer to prepare a 1.0×10^-1 M solution. In the same manner, each of the TCPD, THEPD, TDHPD, HTEPD, N,N-BHDPD, N,N'-BHPD, N,N'-BHDPD, and p-phenylenediamine derivatives having substituted amino group by reacting p-phenylenediamine with propyleneoxide obtained in Synthesis Examples 1 to 9 was dissolved in the same buffer to prepare a 5.0×10^-3 M solution.
as §1, with “B, and electric current was” for “B, and current was”, “B) of HRPO.” for “B) of GOD.”
Using the same apparatus of Test Example 2, electric current was measured in the presence (composition A) or absence (composition B) of HRPO for 5 or 10 minutes after application of potential of -80 mV (vs Ag/AgCl, the same shall apply hereinafter) in the case of TEPD, THEPD, and TDHPD, or -150 mV in the case of TCPD, HTEPD, N,N-BHDPD, N,N'-BHPD, N,N'-BHDPD, and p-phenylenediamine derivatives having substituted amino group by reacting p-phenylenediamine with propyleneoxide.

[3] = Current response of electron mediators in buffer solution and in the presence of blood, urine; conditions: for current response: in a buffer solution; for response in the presence of blood, urine and the like: interfering substances in blood
Description: (§2) Of these oxidation-reduction enzymes, glucose oxidase (GOD) is used in enzyme electrodes for the measurement of blood glucose level and horseradish peroxidase (HRPO) is used as a label enzyme in specific binding assays such as DNA hybridization, immunoassay and the like. […] However, these electron mediators were not able to show stable and reproducible response in the presence of blood, urine and the like because of the interfering substances contained therein.

[4] = Measurement of vapor pressures (gas flow method); format: physicochemical; conditions: for vapor pressure lower than that of TEPD / vapor pressure: at 25° C.; for vapor pressure: gas flow method; for property in drying (freeze-drying, vacuum drying, air-drying) and stability of dried states: compared with PPD, TMPD and TEPD, concluded from vapor pressures
Procedure: Measurement of vapor pressures of p-phenylenediamine(PPD), N,N,N',N'-tetramethyl-p-phenylenediamine (TMPD), TEPD, TCPD, THEPD and TDHPD
The PPD(manufactured by Wakoh Junyaku K.K), TMPD (manufactured by Tokyo Kasei K.K), further, TEPD, TCPD, THEPD and TDHPO obtained in the course of the procedures of Synthesis Examples 1 to 4 were checked for their vapor pressures.
Vapor densities (amount of evaporation/volume) of the solid samples (PPD, TMPD, TEPD, TCPD, THEPD and TDHPD) were measured by contacting each sample heated to a predetermined temperature with a stream of carrier gas (nitrogen) and saturating the sample with vapor, and vapor pressures of TEPD and THEPD were calculated from the data on an assumption that the vapor follows the law of ideal gas (gas flow method). The vapor density was calculated by measuring evaporation rate (loss rate) of each sample using an electric balance, and the carrier gas flow rate using a flow meter.
The vapor pressure was calculated from the vapor density based on the following formula.
In the above formula, P represents vapor pressure (mmHg), k represents evaporation rate (mg/min), v represents carrier gas flow rate (ml/min), k/v represents vapor density (mg/ml), M represents molecular weight of each sample, π represents pressure of the system (mmHg) and V represents molar volume of carrier gas (l/mol).

glucose oxidase = glucose oxidase (Aspergillus niger, UniProt P13006); assay: Current response in a buffer with electron mediator (inventors' experiments); format: biochemical; conditions: compared with conventional electron mediators (ferrocene derivatives, inorganic ions, metal complexes)
Description: as §2

horseradish peroxidase = target: T3, horseradish peroxidase (Armoracia rusticana, UniProt P00433); assay: as above; format: biochemical; conditions: compared with conventional electron mediators (ferrocene derivatives, inorganic ions, metal complexes)
T3 sequence (P00433 31-338 limits assumed): T2 sequence (P00433 31-338 limits assumed)
Description: as §2

T1 sequence (P13006 17-605): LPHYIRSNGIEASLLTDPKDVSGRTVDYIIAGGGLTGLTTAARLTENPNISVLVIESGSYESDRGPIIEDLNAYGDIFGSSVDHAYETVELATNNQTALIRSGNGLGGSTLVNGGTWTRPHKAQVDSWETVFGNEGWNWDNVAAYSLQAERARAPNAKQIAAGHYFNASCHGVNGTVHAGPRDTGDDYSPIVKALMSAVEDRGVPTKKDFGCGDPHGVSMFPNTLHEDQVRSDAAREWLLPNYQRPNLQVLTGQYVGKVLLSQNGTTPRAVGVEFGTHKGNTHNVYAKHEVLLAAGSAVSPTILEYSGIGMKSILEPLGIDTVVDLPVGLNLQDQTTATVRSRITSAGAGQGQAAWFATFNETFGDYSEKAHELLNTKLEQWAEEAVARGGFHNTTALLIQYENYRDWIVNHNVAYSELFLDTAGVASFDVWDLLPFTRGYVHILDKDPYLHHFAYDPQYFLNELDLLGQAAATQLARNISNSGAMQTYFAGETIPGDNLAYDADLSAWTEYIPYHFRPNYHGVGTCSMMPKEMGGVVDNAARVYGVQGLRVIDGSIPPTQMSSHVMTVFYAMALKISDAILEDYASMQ
glucose oxidase, sequence (P13006 17-605): as above

| Molecule | current response and characteristics of dry chemistry type chips [1] | function as electron mediator between GOD and the electrode (Glucose oxidase (GOD)) | function as electron mediator between HRPO and the electrode [2] | also measured |
| --- | --- | --- | --- | --- |
| Oc1ccc(O)cc1 [HQ, hydroquinone] | low current response and extremely poor characteristics | – | – | – |
| CCN(CC)c1ccc(N(CC)CCO)cc1 [HTEPD, N-2'-hydroxyethyl-,N,N',N'-triethyl-p-phenylenediamine dihydrochloride] | – | function as a reversible electron mediator between GOD and the electrode | function as a reversible electron mediator between HRPO and the electrode | – |
| CCN(CCO)c1ccc(N(CC)CCO)cc1.Cl.Cl [N,N'-BHDPD, N,N'-bis-(2'-hydroxyethyl)-N,N'-diethyl-p-phenylenediamine dihydrochloride] | – | function as a reversible electron mediator between GOD and the electrode | function as a reversible electron mediator between HRPO and the electrode | – |
| OCCNc1ccc(NCCO)cc1 [N,N'-BHPD, N,N'-bis-(2'-hydroxyethyl)-p-phenylenediamine] | – | function as a reversible electron mediator between GOD and the electrode | function as a reversible electron mediator between HRPO and the electrode | – |
| CCN(CC)c1ccc(N(CCO)CCO)cc1.Cl.Cl [N,N-BHDPD, N,N-bis-(2'-hydroxyethyl)-N',N'-diethyl-p-phenylenediamine dihydrochloride] | – | function as a reversible electron mediator between GOD and the electrode | function as a reversible electron mediator between HRPO and the electrode | – |
| Nc1ccc(N)cc1 [PPD, p-phenylenediamine] | low current response and extremely poor characteristics | – | – | current response [3]: excellent current response; response in the presence of blood, urine and the like [3]: interference |
| O=C(O)CN(CC(=O)O)c1ccc(N(CC(=O)O)CC(=O)O)cc1 [TCPD, N,N,N',N'-tetrakiscarboxymethyl-p-phenylenediamine] | – | function as a reversible electron mediator between GOD and the electrode | function as a reversible electron mediator between HRPO and the electrode | vapor pressure lower than that of TEPD [4]: about 50,000 times; vapor pressure [4]: 8.7×10^-9 mmHg; property in drying (freeze-drying, vacuum drying, air-drying) and stability of dried states [4]: superior to those of PPD, TMPD and TEPD |
| Cl.Cl.OCC(O)CN(CC(O)CO)c1ccc(N(CC(O)CO)CC(O)CO)cc1 (stereo not drawn) [TDHPD, N,N,N',N'-tetrakis-(2',3'-dihydroxypropyl)-p-phenylenediamine dihydrochloride] | – | function as a reversible electron mediator between GOD and the electrode | function as a reversible electron mediator between HRPO and the electrode | vapor pressure lower than that of TEPD [4]: about 420,000 times; vapor pressure [4]: 1.0×10^-9 mmHg; property in drying (freeze-drying, vacuum drying, air-drying) and stability of dried states [4]: superior to those of PPD, TMPD and TEPD |
| CN(C)c1ccc(N(C)C)cc1 [TMPD, N,N,N',N'-tetramethyl-p-phenylenediamine] | low current response and extremely poor characteristics | – | – | current response [3]: excellent current response; response in the presence of blood, urine and the like [3]: interference |
| hydroquinone (HQ)/benzoquinone (BQ) | – | – | – | current response (glucose oxidase): superior current response; current response (horseradish peroxidase): superior current response |
